Data: PubChem BioAssay (NCI)
“And” between values parts separate entries of the source, which are not always exact repeats. Identical values can stand only once.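 The compound was tested at five concentrations on cells cultured in 96-well plates, with a 48-hour exposure period. GI50 = concentration required for 50% inhibition of growth. TGI is the concentration that stops growth completely.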

How the values were obtained:
Assay in all cases: DTP human tumour cell line panel, 48 h
ACHN renal = tested on: ACHN renal
SK-MEL-5 melanoma = tested on: SK-MEL-5 melanoma
PC-3 prostate = tested on: PC-3 prostate
OVCAR-3 ovarian = tested on: OVCAR-3 ovarian
CCRF-CEM leukemia = tested on: CCRF-CEM leukemia
OVCAR-4 ovarian = tested on: OVCAR-4 ovarian
K-562 leukemia = tested on: K-562 leukemia
NCI-H23 lung = tested on: NCI-H23 lung

Compound	GI50 (ACHN renal) [µM]	TGI (ACHN renal)	GI50 (SK-MEL-5 melanoma) [µM]	TGI (SK-MEL-5 melanoma)	GI50 (PC-3 prostate) [µM]	TGI (PC-3 prostate)	GI50 (OVCAR-3 ovarian) [µM]	TGI (OVCAR-3 ovarian)	GI50 (CCRF-CEM leukemia)	TGI (CCRF-CEM leukemia)	GI50 (OVCAR-4 ovarian) [µM]	TGI (OVCAR-4 ovarian)	GI50 (K-562 leukemia) [µM]	TGI (K-562 leukemia)	GI50 (NCI-H23 lung) [µM]	TGI (NCI-H23 lung)
CON=C1C[C@]2(C[C@@H]3C[C@@H](C/C=C(\C)C[C@@H](C)/C=C/C=C4\CO[C@@H]5[C@H](O)C(C)=C[C@@H](C(=O)O3)[C@]45O)O2)O[C@H](/C(C)=C/C(C)C)[C@H]1C	15.2	29.3 µM	15.4	29.1 µM	2.63	11.2 µM	4.45	15.8 µM	7.65 µM	34.3 µM	16	29.7 µM	3.69	10.8 µM	12.6	28.4 µM
CC(C)(C)[Si](C)(C)OC1[C@@H](O[Si](C)(C)C(C)(C)C)[C@@H](CNC(=O)NC(=O)NC(=O)CCl)O[C@H]1n1cnc2c(NC(=O)Nc3ccccc3)ncnc21 (some centres undefined)	5.03	12.2 µM	8.21	15 µM	1.1	3.93 µM	1.82	4.87 µM	0.127 µM	0.334 µM	3.31	10.5 µM	2.56	7.51 µM	1.57	6.59 µM
C=C1C[C@@H](O)[C@@H](Br)C(C)(C)[C@]12CCC(C)(Br)C(Cl)C2 (some centres undefined)	18.5	> 50 µM and 34.1 µM	16.7	> 50 µM and 30.3 µM	0.107	10.8 µM and 2.29 µM	17.4	> 50 µM and 33.7 µM	1.05 µM	> 50 µM and 14.4 µM	15.7	> 50 µM and 32.9 µM	19.2	> 50 µM and 42.4 µM	18.7	> 50 µM and 37.5 µM
CCCCCCCCCCCCNC(=O)N[C@H](C(=O)N[C@H]1/C=C/CCNC(=O)/C=C/[C@H](C)NC1=O)C(C)C	1.87	> 100 µM	0.163	0.39 µM	0.0154	0.0665 µM	0.0566	0.935 µM	0.0495 µM	5.13 µM	0.104	2.12 µM	0.456	15.1 µM	0.0513	0.612 µM
C[C@]12CCCN1CC1=NNC(=O)c3cc(F)cc4[nH]c2c1c34	21.1	> 100 µM	20.7	53.4 µM	20.7	> 100 µM	17.8	> 100 µM	22.5 µM	81 µM	24.9	> 100 µM			16.1	54.6 µM
Cc1cc2c(C(=O)NCC#N)cccc2n1-c1nc2c(c(NCc3ccccc3)n1)CCCC2	0.28	1.24 µM	0.118	0.245 µM			0.245	0.62 µM			0.322	1.76 µM	0.372	> 100 µM	0.285	1.19 µM
CC(=O)NC(CS)C(=O)O (centres undefined)	> 100	> 100 µM	> 100	> 100 µM and 66800 µM	> 100	> 100 µM	> 100	> 100 µM and 58500 µM		> 100 µM	> 100	> 100 µM			> 100	> 100 µM and 62700 µM
O=C(O)c1ccc(NCc2nc3ccccc3[nH]2)cc1	> 100	> 100 µM	> 100	> 100 µM	> 100	> 100 µM	> 100	> 100 µM	> 100 µM	> 100 µM	> 100	> 100 µM	> 100	> 100 µM	> 100	> 100 µM
CN1C(=O)/C(=C2\S/C(=N\c3nnc(-c4ccccc4)o3)NC2=O)c2ccccc21	> 100	> 100 µM	90.1	> 100 µM	> 100	> 100 µM	> 100	> 100 µM	63.7 µM	> 100 µM	> 100	> 100 µM	> 100	> 100 µM	> 100	> 100 µM
CC1NC(C(=O)O)Cc2cc(O)c(O)cc21 (centres undefined)		> 100 µM		> 100 µM		> 100 µM		> 100 µM		> 100 µM		> 100 µM				> 100 µM
O=C(CN1CCN(CCN2C(=O)c3cccc4cccc(c34)C2=O)CC1)Nc1ccc2ncsc2c1	4.09	16.5 µM	3.7	16 µM	6.31	34.6 µM	7.34	21.5 µM	5.4 µM	53 µM	11.3	26.5 µM			7.08	27 µM
C[C@@H]1CC[C@H]2[C@@H](C)C(OC/C=C/COC3O[C@@H]4O[C@@]5(C)CC[C@H]6[C@H](C)CC[C@@H]([C@H]3C)[C@@]46OO5)O[C@@H]3O[C@@]4(C)CC[C@@H]1[C@]32OO4 (some centres undefined)	< 0.0169		0.0491	18.6 µM	< 0.01	> 100 µM	< 0.0109	1.07 µM	< 0.01 µM	> 50.6 µM			< 0.0201	> 41.6 µM	< 0.01	18.5 µM
COc1ccc(C2=NN(C=O)C(c3ccc(OS(=O)(=O)c4ccc(C)cc4)c(OC)c3)C2)cc1 (centres undefined)	10.1	> 100 µM			3.34	> 100 µM	5.6	> 100 µM	4.05 µM	> 100 µM			2.45	> 100 µM	4.58	> 100 µM
CC(=O)N(C)c1cc(NCc2ccccc2)ccc1OCc1ccccc1		36.5 µM		33.8 µM				32.8 µM		45 µM		36.6 µM		63.5 µM		57.1 µM
COc1cccc(CCNC(=O)CC(c2ccccc2)(c2ccccc2)c2ccccc2)c1	7.84	94.8 µM	4.84	> 100 µM	6.12	> 100 µM	4.77	> 100 µM	8.16 µM	> 100 µM	> 100	> 100 µM	6.03	> 100 µM		
C=C[C@H]1CN2CCc3c([nH]c4c([C@@H]5CCCN5C)c(O)ccc34)[C@@H]2C[C@@H]1C[C@H]1c2[nH]c3ccccc3c2CCN1C		3.39 µM and 3.1 µM and 3.32 µM		3.02 µM and 3.04 µM		3.05 µM and 2.88 µM		2.8 µM and 3.16 µM	0.484 µM and 0.475 µM			3.2 µM				3.63 µM and 3.71 µM
